According to US7713994B2 (Wyeth LLC, priority 2005, dated 2010):
Where two headings read alike, the source gives them in different places.

Columns and labels:
HCT-116 = assay: Cytotoxicity assay (SRB), HCT-116; type: cell-based; details: Homo sapiens, HCT-116, 72 h, HCT116 cells, SRB, read-out: In Vitro Cellular Activity IC50 HCT116
In short: (§1)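 Growth inhibition, SRB method: 3-day continuous compound exposure for HCT-116, LoVo and MCF-7 and 6-day exposure for BT474. Absorbance at 540 nm reflects surviving cell protein relative to controls.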

cyclin E/CDK2 enzyme = biological target: T1, cyclin E/CDK2 enzyme (Homo sapiens, UniProt P24941); assay: CDK2 ELISA kinase assay (phospho-Rb ser 795 detection); type: biochemical
T1 construct: made in house; host or cells: Sf9 insect cells, recombinant baculovirus
In short: (§2)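 GST-Rb C-terminal fragment coated on wells; kinase reaction: 200 μM ATP, 0.5 mg/ml BSA, HEPES pH 7.5, 10 mM MgCl2, baculovirus/Sf9 cyclin-CDK, 30° C, 1 h. Readout anti-phospho-Rb Ser795, HRP, TMB, A450. Test compound 10 ug/ml final.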

BT474 = assay: Cytotoxicity assay (SRB), BT474; type: cell-based
In short: as §1

MCF-7 = assay: Cytotoxicity assay (SRB), MCF-7; type: cell-based; details: Homo sapiens, MCF7, 72 h, MCF-7 cells, SRB, read-out: In Vitro Cellular Activity IC50 MCF-7
In short: as §1

cyclin B/CDK1 enzyme = biological target: T2, cyclin B/CDK1 enzyme (Homo sapiens, UniProt P06493); assay: CDK1 ELISA kinase assay (phospho-Rb ser 795 detection); type: biochemical
T2 construct: purchased New England BioLabs; host or cells: Sf9 insect cells, recombinant baculovirus
T2 sequence (P06493 whole entry): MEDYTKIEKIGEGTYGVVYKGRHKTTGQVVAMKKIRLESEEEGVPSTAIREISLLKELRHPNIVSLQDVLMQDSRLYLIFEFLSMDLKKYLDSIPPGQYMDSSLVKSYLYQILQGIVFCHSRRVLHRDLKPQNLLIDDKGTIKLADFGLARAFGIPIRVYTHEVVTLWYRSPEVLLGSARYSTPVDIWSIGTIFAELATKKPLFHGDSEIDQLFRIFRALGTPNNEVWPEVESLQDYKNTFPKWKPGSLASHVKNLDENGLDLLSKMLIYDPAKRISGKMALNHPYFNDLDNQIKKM
T2 sequence (P14635 whole entry partner): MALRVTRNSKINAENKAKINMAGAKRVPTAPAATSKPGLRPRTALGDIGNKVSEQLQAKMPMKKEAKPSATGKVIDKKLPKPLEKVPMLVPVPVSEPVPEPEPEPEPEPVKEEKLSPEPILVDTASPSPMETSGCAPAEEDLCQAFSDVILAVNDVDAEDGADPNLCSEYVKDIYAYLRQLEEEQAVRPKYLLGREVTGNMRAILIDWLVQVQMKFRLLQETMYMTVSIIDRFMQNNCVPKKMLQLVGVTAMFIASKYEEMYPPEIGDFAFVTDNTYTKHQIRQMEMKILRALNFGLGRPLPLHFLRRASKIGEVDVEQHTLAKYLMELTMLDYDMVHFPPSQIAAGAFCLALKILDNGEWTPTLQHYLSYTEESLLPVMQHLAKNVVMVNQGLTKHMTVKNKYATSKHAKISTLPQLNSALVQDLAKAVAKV
In short: as §2

cyclin D1/cdk 4 enzyme = biological target: T3, cyclin D1/cdk 4 enzyme (Homo sapiens, UniProt P11802); assay: CDK4 ELISA kinase assay (phospho-Rb ser 795 detection); type: biochemical
T3 construct: made in house; host or cells: Sf9 insect cells, recombinant baculovirus
T3 sequence (P11802 whole entry, species assumed): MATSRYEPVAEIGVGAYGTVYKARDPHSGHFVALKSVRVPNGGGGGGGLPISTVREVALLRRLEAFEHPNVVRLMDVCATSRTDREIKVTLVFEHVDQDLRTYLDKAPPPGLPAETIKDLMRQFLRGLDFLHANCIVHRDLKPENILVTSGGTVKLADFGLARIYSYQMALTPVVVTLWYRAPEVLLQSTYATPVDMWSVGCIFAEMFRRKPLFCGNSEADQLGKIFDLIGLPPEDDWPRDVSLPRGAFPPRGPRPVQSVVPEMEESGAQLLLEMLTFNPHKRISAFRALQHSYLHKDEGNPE
T3 sequence (P24385 whole entry partner, species assumed): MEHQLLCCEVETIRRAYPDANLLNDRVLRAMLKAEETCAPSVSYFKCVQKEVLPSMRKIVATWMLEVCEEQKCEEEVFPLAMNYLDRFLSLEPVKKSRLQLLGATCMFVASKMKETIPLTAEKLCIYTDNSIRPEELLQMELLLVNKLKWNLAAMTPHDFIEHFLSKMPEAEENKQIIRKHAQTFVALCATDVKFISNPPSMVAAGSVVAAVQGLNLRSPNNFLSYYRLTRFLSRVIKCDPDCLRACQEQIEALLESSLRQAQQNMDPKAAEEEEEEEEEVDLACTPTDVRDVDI
In short: as §2

LoVo = assay: Cytotoxicity assay (SRB), LoVo; type: cell-based; details: Homo sapiens, LoVo, 72 h, LoVo cells, SRB, read-out: In Vitro Cellular Activity IC50 LOVO
In short: as §1

[1] = In Vitro Enzyme Assay, cyclin E/CDK2, read-out: CDK2 IC50
[2] = Homo sapiens, BT-474, 144 h, BT474 cells, 6 days, SRB; read-out: In Vitro Cellular Activity IC50 BT474
[3] = In Vitro Enzyme Assay, cyclin B/CDK1, read-out: CDK1 IC50
[4] = In Vitro Enzyme Assay, cyclin D1/cdk 4, read-out: CDK4 IC50
[5] = In Vitro Enzyme Assays, read-out: CDK2 IC50
[6] = In Vitro Enzyme Assays, read-out: CDK1 IC50
[7] = In Vitro Enzyme Assays, 200 μM ATP, read-out: CDK4 IC50
[8] = Homo sapiens, BT-474, 144 h, BT474 cells, SRB, 6 days; read-out: In Vitro Cellular Activity IC50 BT474

Row | SMILES | IC50 (cyclin E/CDK2 enzyme; [1]) [µM] | IC50 (cyclin B/CDK1 enzyme; [3]) [µM] | IC50 (cyclin D1/cdk 4 enzyme; [4]) [µM] | IC50 (cyclin E/CDK2 enzyme; [5]) [µM] | IC50 (cyclin B/CDK1 enzyme; [6]) [µM] | IC50 (cyclin D1/cdk 4 enzyme; [7]) [µM] | IC50 (cyclin E/CDK2 enzyme; In Vitro Enzyme Assay, read-out: CDK2 IC50) [µM] | IC50 (cyclin B/CDK1 enzyme; In Vitro Enzyme Assay, read-out: CDK1 IC50) [µM] | IC50 (cyclin D1/cdk 4 enzyme; In Vitro Enzyme Assay, read-out: CDK4 IC50) [µM] | IC50 (HCT-116; 3 days) [µM] | IC50 (BT474; [2]) [µM] | IC50 (MCF-7; 3 days) [µM] | IC50 (LoVo; 3 days) [µM] | IC50 (HCT-116; three days) [µM] | IC50 (BT474; [8]) [µM] | IC50 (MCF-7; three days) [µM] | IC50 (LoVo; three days) [µM]
1 | NS(=O)(=O)c1ccc(CNC=C2C(=O)NC(=O)c3ccc(-c4cc5ccccc5s4)cc32)cc1 [Example 635, 4-{[(6-Benzo[b]thiophen-2-yl-1,3-dioxo-2,3-dihydro-1H-isoquinolin-4-ylidenemethyl)-amino]-methyl}-benzenesulfonamide] | 19.7 | 16.9 | 1.2 |  |  |  |  |  |  | 23.6 | 37.2 | 11.4 | > 50 |  |  |  | 
2 | O=C1NC(=O)c2ccc(-c3ccoc3)cc2/C1=C/Nc1ccc(CN2CCC(CCO)CC2)cc1 [Example 491, (4Z)-6-(3-Furyl)-4-{[(4-{[4-(2-hydroxyethyl)piperidin-1-yl]methyl}phenyl)amino]methylene}isoquinoline-1,3(2H,4H)-dione] | > 50 | > 50 | 0.05 |  |  |  |  |  |  | 3.5 | 1.2 | 1 | 2.7 |  |  |  | 
3 | O=C1NC(=O)c2ccc(-c3ccsc3)cc2/C1=C/Nc1ccc(CN2CCC[C@@H]2CO)cc1 (stereo in doubt) [Example 421, 4-{[4-(2-Hydroxymethyl-pyrrolidin-1-ylmethyl)-phenylamino]-methylene}-6-thiophen-3-yl-4H-isoquinoline-1,3-dione] |  |  |  | > 50 | > 50 | 0.05 |  |  |  | 2.6 | 2.9 | 3.8 | 2.7 |  |  |  | 
4 | CN(CCN1CCCC1)c1ccc(N/C=C2\C(=O)NC(=O)c3ccc(Br)cc32)cc1 [Example 255, (4Z)-6-Bromo-4-[({4-[methyl(2-pyrrolidin-1-ylethyl)amino]phenyl}amino)methylene]isoquinoline-1,3(2H,4H)-dione] |  |  |  | > 50 | > 50 | 2.5 |  |  |  |  |  |  |  | 3.1 | 7.9 | 3.6 | 3.8
5 | O=C1NC(=O)c2ccc(I)cc2/C1=C/Nc1ccc(N2CCC[C@H]2CO)c(F)c1 (stereo in doubt) [Example 426, 4-{[3-Fluoro-4-(2-hydroxymethyl-pyrrolidin-1-yl)-phenylamino]-methylene}-6-iodo-4H-isoquinoline-1,3-dione] |  |  |  | 31 | > 50 | 10 |  |  |  | 1.6 | 4.5 | 2.8 | 2.2 |  |  |  | 
6 | O=C1NC(=O)c2ccc(Br)cc2/C1=C/Nc1ccc(CN2CCC[C@H]2CO)cc1 (stereo in doubt) [Example 437, 6-Bromo-4-{[4-(2-hydroxymethyl-pyrrolidin-1-ylmethyl)-phenylamino]-methylene}-4H-isoquinoline-1,3-dione] |  |  |  | 36.3 | > 50 | 0.75 |  |  |  | 3.7 | 2.9 | 3.1 | 3.6 |  |  |  | 
7 | CCNCC1CCN(c2ccc(N/C=C3\C(=O)NC(=O)c4ccc(I)cc43)cc2)CC1 [Example 456, (4Z)-4-{[(4-{4-[(Ethylamino)methyl]piperidin-1-yl}phenyl)amino]methylene}-6-iodoisoquinoline-1,3(2H,4H)-dione] | > 50 | > 50 | 0.47 |  |  |  |  |  |  | 2.7 | 9.2 | 11 | 8.3 |  |  |  | 
8 | CN1CCC(N(C)CC2CCN(c3ccc(N/C=C4\C(=O)NC(=O)c5ccc(I)cc54)cc3)CC2)C1 (stereo not drawn) [Example 455, (4Z)-6-Iodo-4-({[4-(4-{[methyl(1-methylpyrrolidin-3-yl)amino]methyl}piperidin-1-yl)phenyl]amino}methylene)isoquinoline-1,3(2H,4H)-dione] |  |  |  | > 50 | > 50 | 5 |  |  |  | 2.4 | 3.1 | 3.1 | 3.3 |  |  |  | 
9 | CN1CCCC1c1ccc(NC=C2C(=O)NC(=O)c3ccc(I)cc32)cc1 (stereo not drawn) [Example 361, 6-Iodo-4-{[4-(1-methyl-pyrrolidin-2-yl)-phenylamino]-methylene}-4H-isoquinoline-1,3-dione] |  |  |  | 17.9 | 45.5 | 0.22 |  |  |  |  |  |  |  | 3.8 | 0.86 | 2.6 | 5.9
10 | CC(c1ccc(N/C=C2\C(=O)NC(=O)c3ccc(I)cc32)cc1)N1CCCC1 (stereo not drawn) [Example 354, 6-Iodo-4-{[4-(1-pyrrolidin-1-yl-ethyl)-phenylamino]-methylene}-4H-isoquinoline-1,3-dione] |  |  |  | 5 | > 50 | 0.23 |  |  |  |  |  |  |  | 4.8 | 8.6 | 0.94 | 3.5
11 | COc1c(O)cc(CN/C=C2\C(=O)NC(=O)c3ccc(Br)cc32)cc1O [Example 210, (4Z)-6-Bromo-4-{[(3,5-dihydroxy-4-methoxybenzyl)amino]methylene}isoquinoline-1,3(2H,4H)-dione] |  |  |  | 2.1 | 18.9 | 0.008 |  |  |  |  |  |  |  | 10 | 13 | 6.6 | 10

The next lines start with results.

Row | IC50 (cyclin E/CDK2 enzyme; [1]) [µM] | IC50 (cyclin B/CDK1 enzyme; [3]) [µM] | IC50 (cyclin D1/cdk 4 enzyme; [4]) [µM] | IC50 (cyclin E/CDK2 enzyme; [5]) [µM] | IC50 (cyclin B/CDK1 enzyme; [6]) [µM] | IC50 (cyclin D1/cdk 4 enzyme; [7]) [µM] | IC50 (cyclin E/CDK2 enzyme; In Vitro Enzyme Assay, read-out: CDK2 IC50) [µM] | IC50 (cyclin B/CDK1 enzyme; In Vitro Enzyme Assay, read-out: CDK1 IC50) [µM] | IC50 (cyclin D1/cdk 4 enzyme; In Vitro Enzyme Assay, read-out: CDK4 IC50) [µM] | SMILES | IC50 (HCT-116; 3 days) [µM] | IC50 (BT474; [2]) [µM] | IC50 (MCF-7; 3 days) [µM] | IC50 (LoVo; 3 days) [µM] | IC50 (HCT-116; three days) [µM] | IC50 (BT474; [8]) [µM] | IC50 (MCF-7; three days) [µM] | IC50 (LoVo; three days) [µM]
12 | 3.6 | > 50 | 14.3 |  |  |  |  |  |  | N=C(N)c1ccc(NC=C2C(=O)NCc3cc(Br)ccc32)cc1 [Example 861, 4-[(7-Bromo-3-oxo-2,3-dihydro-1H-isoquinolin-4-ylidenemethyl)-amino]-benzamidine] | > 50 | 45.4 | > 50 | > 50 |  |  |  | 
13 |  |  |  |  |  |  | 38.8 | > 50 | 3 | CN(C)CCCc1ccc(N/C=C2\C(=O)NC(=O)c3ccc(Br)cc32)cc1 [Example 874, (4Z)-6-Bromo-4-[({4-[3-(dimethylamino)propyl]phenyl}amino)methylene]isoquinoline-1,3(2H,4H)-dione] | 12.6 | 27.4 | 7.2 | 23.7 |  |  |  | 
14 | 8.2 | 42.5 | 0.16 |  |  |  |  |  |  | O=C1NC(=O)c2ccc(C=CCn3ccnc3)cc2C1=CNCc1ccc(O)c(O)c1 [Example 665, 4-[(3,4-Dihydroxy-benzylamino)-methylene]-6-(3-imidazol-1-yl-propenyl)-4H-isoquinoline-1,3-dione] | 46.8 | 28.9 | 13 | > 50 |  |  |  | 
15 | 34.7 | > 50 | 0.01 |  |  |  |  |  |  | COc1ccc(CNC=C2C(=O)NC(=O)c3ccc(C=Cc4ccncc4)cc32)cc1O [Example 824, 4-[(3-Hydroxy-4-methoxy-benzylamino)-methylene]-6-(2-pyridin-4-yl-vinyl)-4H-isoquinoline-1,3-dione] | 27.5 | > 50 | 33.2 | > 50 |  |  |  | 
16 | > 50 | 30.3 | 1.77 |  |  |  |  |  |  | NS(=O)(=O)c1ccc(CNC=C2C(=O)NC(=O)c3ccc(-c4cccc(F)c4)cc32)cc1 [Example 739, 4-({[6-(3-Fluoro-phenyl)-1,3-dioxo-2,3-dihydro-1H-isoquinolin-4-ylidenemethyl]-amino}-methyl)-benzenesulfonamide] | 26.4 | 32.8 | 17.1 | > 50 |  |  |  | 
17 | 9.6 | 20.6 | 0.55 |  |  |  |  |  |  | O=C1NC(=O)c2ccc(-c3cccc(F)c3)cc2C1=CNCc1ccc(O)c(O)c1 [Example 768, 4-[(3,4-Dihydroxy-benzylamino)-methylene]-6-(3-fluoro-phenyl)-4H-isoquinoline-1,3-dione] | 27.4 | 29.1 | 28.4 | 25.7 |  |  |  | 
18 | 11 | 23.6 | 0.57 |  |  |  |  |  |  | NS(=O)(=O)c1ccc(CNC=C2C(=O)NC(=O)c3ccc(C=Cc4cnccn4)cc32)cc1 [Example 655, 4-({[1,3-Dioxo-6-(2-pyrazin-2-yl-vinyl)-2,3-dihydro-1H-isoquinolin-4-ylidenemethyl]-amino}-methyl)-benzenesulfonamide] | 1.2 | 2 | 7.7 | 7.6 |  |  |  | 
